EC50, Activity and CC50 data for six compounds are collected here from ChEMBL document CHEMBL5143746, “SJPYT-195: A Designed Nuclear Receptor Degrader That Functions as a Molecular Glue Degrader of GSPT1” (ACS Med Chem Lett, 2022).

The target in series [1] is Protein cereblon/DNA damage-binding protein 1 (Homo sapiens, UniProt Q96SW2). The experiment in a line: Displacement of BODIPY FL thalidomide from 6His-tagged CRBN/DDB1 (unknown origin) expressed in baculovirus infected Sf9 insect cells incubated for 1 min under shaking condition followed by 60 mins incubation under dark condition by TR-FRET assay. On the technique in general: In TR-FRET formats the signal depends on donor and acceptor labels being close together.
Protein cereblon/DNA damage-binding protein 1, sequence (Q96SW2 whole entry): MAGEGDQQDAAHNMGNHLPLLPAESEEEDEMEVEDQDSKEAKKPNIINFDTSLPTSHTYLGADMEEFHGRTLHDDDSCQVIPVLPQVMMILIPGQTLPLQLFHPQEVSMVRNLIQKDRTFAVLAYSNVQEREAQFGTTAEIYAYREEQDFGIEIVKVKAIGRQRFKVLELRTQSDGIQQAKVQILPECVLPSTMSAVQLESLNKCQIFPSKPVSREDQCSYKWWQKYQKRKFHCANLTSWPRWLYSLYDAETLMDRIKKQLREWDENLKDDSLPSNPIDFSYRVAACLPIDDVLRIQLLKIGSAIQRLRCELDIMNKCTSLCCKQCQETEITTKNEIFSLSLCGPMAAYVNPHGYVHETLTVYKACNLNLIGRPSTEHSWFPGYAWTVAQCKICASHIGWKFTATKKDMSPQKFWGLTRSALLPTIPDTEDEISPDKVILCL
Protein cereblon/DNA damage-binding protein 1, sequence (Q16531 whole entry, further chain): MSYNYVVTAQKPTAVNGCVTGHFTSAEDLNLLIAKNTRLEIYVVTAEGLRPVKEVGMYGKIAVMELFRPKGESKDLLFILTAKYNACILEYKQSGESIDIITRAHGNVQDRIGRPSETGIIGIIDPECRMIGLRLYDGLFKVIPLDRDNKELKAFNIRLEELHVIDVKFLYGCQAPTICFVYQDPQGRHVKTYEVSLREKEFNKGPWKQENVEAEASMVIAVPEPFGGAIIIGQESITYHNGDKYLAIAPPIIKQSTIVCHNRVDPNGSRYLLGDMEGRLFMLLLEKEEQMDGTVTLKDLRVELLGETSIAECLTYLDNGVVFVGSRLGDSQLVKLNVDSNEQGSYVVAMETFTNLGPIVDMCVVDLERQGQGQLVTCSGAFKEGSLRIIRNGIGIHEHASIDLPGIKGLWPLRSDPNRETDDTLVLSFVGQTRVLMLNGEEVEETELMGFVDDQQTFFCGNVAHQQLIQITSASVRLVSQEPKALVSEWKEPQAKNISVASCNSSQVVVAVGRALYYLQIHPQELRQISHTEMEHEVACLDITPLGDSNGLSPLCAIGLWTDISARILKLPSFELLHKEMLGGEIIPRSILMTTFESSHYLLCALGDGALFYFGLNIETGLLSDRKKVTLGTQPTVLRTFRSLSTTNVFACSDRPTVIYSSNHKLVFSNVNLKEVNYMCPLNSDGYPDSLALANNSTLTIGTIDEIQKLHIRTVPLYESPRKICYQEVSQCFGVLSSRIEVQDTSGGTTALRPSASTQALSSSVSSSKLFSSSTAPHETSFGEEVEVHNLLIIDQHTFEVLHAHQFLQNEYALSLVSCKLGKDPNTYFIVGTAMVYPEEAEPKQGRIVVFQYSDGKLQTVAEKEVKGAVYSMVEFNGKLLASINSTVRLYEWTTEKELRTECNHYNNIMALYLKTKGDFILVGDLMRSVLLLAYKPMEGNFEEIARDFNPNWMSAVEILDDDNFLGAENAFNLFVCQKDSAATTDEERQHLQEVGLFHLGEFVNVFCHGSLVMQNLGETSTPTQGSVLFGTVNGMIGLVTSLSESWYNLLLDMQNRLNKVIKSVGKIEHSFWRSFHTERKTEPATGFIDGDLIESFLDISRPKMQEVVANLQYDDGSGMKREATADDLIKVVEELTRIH

Series [2] addresses T1, Nuclear receptor subfamily 1 group I member 2 (Homo sapiens, UniProt O75469).
T1 sequence (O75469 whole entry): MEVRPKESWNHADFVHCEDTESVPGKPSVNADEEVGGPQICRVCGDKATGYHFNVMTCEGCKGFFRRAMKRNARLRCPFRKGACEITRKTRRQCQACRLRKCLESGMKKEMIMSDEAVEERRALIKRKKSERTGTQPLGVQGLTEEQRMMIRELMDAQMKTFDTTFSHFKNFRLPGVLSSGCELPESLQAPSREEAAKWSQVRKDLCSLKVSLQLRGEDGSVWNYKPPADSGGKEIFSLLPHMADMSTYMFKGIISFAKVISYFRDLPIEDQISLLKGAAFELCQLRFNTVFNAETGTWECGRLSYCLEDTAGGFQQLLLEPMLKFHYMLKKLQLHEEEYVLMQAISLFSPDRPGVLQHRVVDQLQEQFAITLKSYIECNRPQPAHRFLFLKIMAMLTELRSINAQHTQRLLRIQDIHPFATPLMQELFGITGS
The series is described as follows: Induction of PXR degradation in PXR knock in human SNU-C4 cells at 0.0001 to 1 uM measured after 24 hrs by Western blot analysis. Type of series: cell-based. The settings on record: snu-c4, 24 h, dose 0.0001-1 µM.

Series [3] relates to SNU-C4. The series is described as follows: Cytotoxicity against PXR knock in human SNU-C4 cells measured after 72 hrs by celltiter-glo assay. Type of series: functional. (Cellular ATP, detected with luciferase, serves as a proxy for viable cell number.)
Series [4] relates to SNU-C4. The series is described as follows: […] of ZFP91 expression in PXR knock in human SNU-C4 cells at 5 uM measured after 12 hrs by TMT-MS analysis. Type of series: functional, cell-based.
In series [5] the target is T1, Nuclear receptor subfamily 1 group I member 2. The series is described as follows: Induction of PXR degradation in PXR knock in human SNU-C4 cells at 10 uM measured after 2 to 48 hrs by Western blot analysis. It is filed as cell-based. Conditions: snu-c4, 10 µM, time 2-48 hrs. (A western blot detects proteins with antibodies after separation by electrophoresis.)
The test system of series [6] is SNU-C4. The experiment in a line: […] of GSPT1 expression in PXR knock in human SNU-C4 cells at 5 uM measured after 12 hrs by TMT-MS analysis. Type of series: functional, cell-based.
For series [7], the system named is SNU-C4. The series is described as follows: Down regulation of FOS expression in PXR knock in human SNU-C4 cells at 5 uM measured after 12 hrs by TMT-MS analysis. It is filed as functional, cell-based.
Series [8] addresses Protein cereblon/Peptidyl-prolyl cis-trans isomerase FKBP1A/Nuclear receptor subfamily 1 group I member 2 (Homo sapiens, UniProt P62942+O75469+Q96SW2, F37V). The experiment in a line: Molecular glue activity at HA-tagged CLR4-CRBN/2HA-tagged PXR fused HiBiT-tagged FKBP12 (F36V) mutant (unknown origin) expressed in HepG2 cells assessed as induction of PXR degradation measured after 24 hrs by Nano-Glo HiBiT assay. Type of series: cell-based. Conditions: hepg2, 24 h, DDE = dose-dependent effect.

Series [9] deals with SNU-C4. The experiment in a line: Up regulation of CYP1A1 expression in PXR knock in human SNU-C4 cells at 5 uM measured after 12 hrs by TMT-MS analysis. It is filed as functional, cell-based.
For series [10], the target named is Eukaryotic peptide chain release factor GTP-binding subunit ERF3A (Homo sapiens) (UniProt P15170). The series is described as follows: Induction of GSPT1 degradation in PXR knock in human SNU-C4 cells at 0.001 to 10 uM measured after 24 hrs by Western blot analysis. It is filed as cell-based. Conditions: dose 0.001-10 µM.
Eukaryotic peptide chain release factor GTP-binding subunit ERF3A (Homo sapiens), sequence (P15170 whole entry): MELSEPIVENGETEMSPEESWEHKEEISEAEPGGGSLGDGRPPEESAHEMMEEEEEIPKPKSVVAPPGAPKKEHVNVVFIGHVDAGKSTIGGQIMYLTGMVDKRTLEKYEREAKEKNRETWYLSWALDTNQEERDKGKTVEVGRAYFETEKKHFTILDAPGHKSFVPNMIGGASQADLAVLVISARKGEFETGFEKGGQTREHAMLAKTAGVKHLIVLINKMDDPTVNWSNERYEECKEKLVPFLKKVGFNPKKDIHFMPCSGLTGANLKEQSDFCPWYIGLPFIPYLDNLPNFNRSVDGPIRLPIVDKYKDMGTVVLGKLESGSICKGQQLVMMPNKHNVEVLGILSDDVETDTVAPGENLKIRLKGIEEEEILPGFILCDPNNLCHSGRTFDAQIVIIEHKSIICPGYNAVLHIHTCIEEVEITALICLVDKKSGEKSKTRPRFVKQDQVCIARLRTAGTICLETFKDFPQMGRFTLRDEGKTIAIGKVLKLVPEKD
Series [11] has as its system SNU-C4. The experiment in a line: […] of GSPT2 expression in PXR knock in human SNU-C4 cells at 5 uM measured after 12 hrs by TMT-MS analysis. It is filed as functional, cell-based.
The target in series [12] is T1, Nuclear receptor subfamily 1 group I member 2. The series is described as follows: Induction of PXR degradation in PXR knock in human SNU-C4 cells at 5 uM measured after 12 hrs by Western blot analysis relative to control. The settings on record: snu-c4, 12 h. It is filed as cell-based.
Series [13] relates to SNU-C4. The series is described as follows: Up regulation of BRIP1 expression in PXR knock in human SNU-C4 cells at 5 uM measured after 12 hrs by TMT-MS analysis. It is filed as functional, cell-based.
The test system of series [14] is SNU-C4. The experiment in a line: Down regulation of PXR mRNA expression in PXR knock in human SNU-C4 cells at 10 uM measured after 2 to 48 hrs by RT-qPCR analysis. Type of series: functional, cell-based. Conditions: time 2-48 hrs.

Molecules are shown by their SMILES. The source made the active and inactive calls. The rule behind the calls is not given here. Bounds are passed on as bounds.

Protein cereblon/Peptidyl-prolyl cis-trans isomerase FKBP1A/Nuclear receptor subfamily 1 group I member 2, sequence (P62942 2-108 F37V limits assumed, stated change not applied, one chain of several): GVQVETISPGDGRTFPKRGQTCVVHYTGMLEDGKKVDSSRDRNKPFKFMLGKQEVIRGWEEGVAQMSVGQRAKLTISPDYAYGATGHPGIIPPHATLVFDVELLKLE
Protein cereblon/Peptidyl-prolyl cis-trans isomerase FKBP1A/Nuclear receptor subfamily 1 group I member 2, sequence (Q96SW2 whole entry, stated change not applied, one chain of several, the tested form may be a part): as the sequence (Q96SW2 whole entry) above

The term EC50 denotes the midpoint of the concentration-response curve. The low end stands for an effect from little substance, the high end for a need for much substance. As for `COc1ccc(OC)c(-n2nnc(C(=O)Nc3cc(OCC(=O)Nc4cccc5c4C(=O)N(C4CCC(=O)NC4=O)C5=O)cc(C(C)(C)C)c3)c2C)c1` (centres undefined), the EC50 in [1] was greater than 333 nM.

Compound `CC(=O)Nc1cc(Nc2cccc3c2C(=O)N(C2CCC(=O)NC2=O)C3=O)cc(C(C)(C)C)c1` (centres undefined) registered an EC50 in series [1] of 3.2 nM.

In series [1], `COc1ccc(OC)c(-n2nnc(C(=O)Nc3cc(NC(=O)CNc4cccc5c4C(=O)N(C4CCC(=O)NC4=O)C5=O)cc(C(C)(C)C)c3)c2C)c1` (centres undefined) displayed an EC50 of 15 nM.

Regarding `COc1ccc(OC)c(-n2nnc(C(=O)Nc3cc(OCCNc4cccc5c4C(=O)N(C4CCC(=O)NC4=O)C5=O)cc(C(C)(C)C)c3)c2C)c1` (centres undefined), in [1], the midpoint of the response, the EC50, lay at 23 nM.

As usually defined, the CC50 is the concentration giving 50% cytotoxicity. Higher therefore signals better tolerance by the cells. Consider `Cc1ccc(NC(=O)NCc2ccc3c(c2)CN(C2CCC(=O)NC2=O)C3=O)cc1Cl` (centres undefined), for which the result in series [2] was Active. In series [3], this compound returned a CC50 of 440 nM.

Take `COc1ccc(OC)c(-n2nnc(C(=O)Nc3cc(Oc4cccc5c4C(=O)N(C4CCC(=O)NC4=O)C5=O)cc(C(C)(C)C)c3)c2C)c1` (centres undefined): the result in series [4], in series [6], in series [7], in series [9], in series [10] and in series [11] was Active. Besides, the outcome in series [13] and in series [14] was Active. Moreover, the Activity entry in series [5] is recorded as “Active”; in [8], “Dde”; in series [12], 50%. Moreover, the CC50 in series [3] is 3.3 nM. Besides, a half-maximal response in series [1] (EC50) required 31 nM.
